According to patent US20160242416A1, “FUNGICIDAL ISOXAZOLINE CARBINOLS” (E I DU PONT DE NEMOURS AND COMPANY, priority 2015, published 2016):

Columns and labels:
[1] = test system: Puccinia recondita f sp. tritici; assay: Test F: wheat leaf rust, preventive spray on wheat seedlings; conditions: 10 ppm; wheat leaf rust; 100 = 100% disease control, 0 = no control
[2] = test system: Erysiphe graminis f sp. tritici; assay: Test G: wheat powdery mildew, preventive spray on wheat seedlings; conditions: 10 ppm; wheat powdery mildew; 100 = 100% disease control, 0 = no control
Stagonospora nodorum = assay: Test D: wheat glume blotch, preventive spray on wheat seedlings; conditions: 10 ppm; wheat glume blotch; 100 = 100% disease control, 0 = no control
Excerpt: (§1) General protocol for preparing test solutions for Tests A-G: the test compounds were first dissolved in acetone in an amount equal to 3% of the final volume and then suspended at the desired concentration (in ppm) in acetone and purified water (50/50 mix by volume) containing 250 ppm of the surfactant PEG400 (polyhydric alcohol esters). The resulting test suspensions were then used in Tests A-G. Compounds were sprayed at a concentration of 50 ppm (*) or 10 ppm to the point of run-off on the test plants, the equivalent of a rate of 200 g/ha or 40 g/ha, respectively.
The test solution was sprayed to the point of run-off on wheat seedlings. The following day the seedlings were inoculated with a spore suspension of Stagonospora nodorum (also known as Septoria nodorum; the causal agent of wheat glume blotch) and incubated in a saturated atmosphere at 20° C. for 48 h, and then moved to a growth chamber at 20° C. for 6 days, after which time visual disease ratings were made.
(§2) Compounds with an asterisks (*) were applied at a concentration of 50 ppm, otherwise test solutions were applied at 10 ppm.

Zymoseptoria tritici = assay: Test E: wheat leaf blotch, preventive spray on wheat seedlings; conditions: 10 ppm; wheat leaf blotch; 100 = 100% disease control, 0 = no control
Excerpt: as §1
The test solution was sprayed to the point of run-off on wheat seedlings. The following day the seedlings were inoculated with a spore suspension of Zymoseptoria tritici (the causal agent of wheat leaf blotch) and incubated in a saturated atmosphere at 24° C. for 48 h, and then moved to a growth chamber at 20° C. for 17 days, after which time visual disease ratings were made.
as §2

Botrytis cinerea = assay: Test B: gray mold, preventive spray on tomato seedlings; conditions: 10 ppm; gray mold on tomato; 100 = 100% disease control, 0 = no control
Excerpt: as §1
The test solution was sprayed to the point of run-off on tomato seedlings. The following day the seedlings were inoculated with a spore suspension of Botrytis cinerea (the causal agent of gray mold on many crops) and incubated in a saturated atmosphere at 20° C. for 48 h, and moved to a growth chamber at 27° C. for 2 days, after which time visual disease ratings were made.
as §2

SMILES | Test F rating (% disease control) [1] [%] | Test G rating (% disease control) [2] [%] | Test D rating (% disease control) (Stagonospora nodorum) [%] | Test E rating (% disease control) (Zymoseptoria tritici) [%] | Test B rating (% disease control) (Botrytis cinerea) [%]
CC(C)(C)CC(O)(Cn1cncn1)C1=NOC(Cc2ccc(Cl)cc2)C1 (single isomer, unassigned) [Compound 206] | 100 | 99 | 86 | 13 | 9
OC(Cn1cncn1)(C1=NOC(c2ccc(C(F)(F)F)cc2)C1)c1ccc(C(F)(F)F)cc1 (single isomer, unassigned) [Compound 154] | 52 | 83 | 0 | 1 | 0
OC(Cn1cncn1)(C1=NOC(c2ccc(Cl)cc2)C1)c1ccc(Oc2ccccc2)cc1 (mixture of isomers) [Compound 152] | 50 | 87 | 0 | 34 | 0
CCC(C)(C)C(O)(Cn1cncn1)C1=NOC(COc2ccc(Cl)cc2)C1 (single isomer, unassigned) [Compound 193] | 99 | 97 | 93 | 22 | 9
OC(Cn1cncn1)(C1=NOC(COc2ccc3c(c2)OCO3)C1)c1ccc(Cl)cc1 (single isomer, unassigned) [Compound 44] | 0 | 64 | 28 | 2 | 0
CC(C)(C)C(O)(Cn1cncn1)C1=NOC(COc2ccc(F)cc2F)C1 (single isomer, unassigned) [Compound 21] | 100 | 99 | 100 | 0 | 9
OC(Cn1cncn1)(C1=NOC(Cc2ccc(Br)cc2)C1)c1ccc(Cl)cc1 (single isomer, unassigned) [Compound 54] | 100 | 99 | 87 | 0 | 0
Cn1nc(C(F)(F)F)cc1OCC1CC(C(O)(Cn2cncn2)C(C)(C)C)=NO1 (single isomer, unassigned) [Compound 47] | 76 | 84 | 0 | 3 | 19
OC(Cn1cncn1)(C1=NOC(c2ccc(F)cc2)C1)c1ccc(Cl)cc1 (single isomer, unassigned) [Compound 158] | 100 | 100 | 96 | 3 | 0
OC(Cn1cncn1)(C1=NOC(c2ccc(Cl)cc2)C1)c1ccc(Br)cc1 (single isomer, unassigned) [Compound 181] | 45 | 69 | 0 | 0 | 0
CC(C)(C)C(O)(Cn1cncn1)C1=NOC(c2cnccn2)C1 (single isomer, unassigned) [Compound 168] | 0 | 35 | 0 | 3 | 11
CC(C)(C)CC(O)(Cn1cncn1)C1=NOC(c2ccc(Cl)cc2)C1 (single isomer, unassigned) [Compound 139] | 100 | 99 | 99 | 6 | 0
CC(C)(C)C(O)(Cn1cncn1)C1=NOC(c2ccc(-n3cc(Br)cn3)cc2)C1 (single isomer, unassigned) [Compound 7] | 100 | 100 | 0 | 14 | 99
CC(C)(C)C(O)(Cn1cncn1)C1=NOC(COc2ccc(OC(F)(F)F)cc2)C1 (single isomer, unassigned) [Compound 24] | 100 | 100 | 99 | 0 | 37
OC(Cn1cncn1)(C1=NOC(c2cccc(Oc3ccccc3)c2)C1)c1ccc(Cl)cc1 (single isomer, unassigned) [Compound 177] | 0 | 89 | 51 | 0 | 0
OC(Cn1cncn1)(C1=NOC(COc2ccc3c(c2)OCO3)C1)c1ccc(Cl)cc1 (single isomer, unassigned) [Compound 43] | 100 | 98 | 38 | 0 | 31
CC(C)(C)C(O)(Cn1cncn1)C1=NOC(COc2ncc(Cl)cn2)C1 (single isomer, unassigned) [Compound 100] | 79 | 92 | 77 | 0 | 0
OC(Cn1cncn1)(C1=NOC(c2ccc(Cl)cc2)C1)C12CC3CC(CC(C3)C1)C2 (single isomer, unassigned) [Compound 40] | 55 | 48 | 51 | 0 | 0
OC(Cn1cncn1)(C1=NOC(Cn2ccc(C(F)(F)F)n2)C1)c1ccc(Cl)cc1 (single isomer, unassigned) [Compound 195] | 99 | 100 | 0 | 0 | 0
CC(C)(C)CC1CC(C(O)(Cn2cncn2)C(C)(C)C)=NO1 (single isomer, unassigned) [Compound 77] | 0 | 13 | 0 | 0 | 0
OC(Cn1cncn1)(C1=NOC(c2ccc(Cl)cc2)C1)c1ccc(F)cc1 (single isomer, unassigned) [Compound 161] | 28 | 94 | 0 | 0 | 0
OC(Cn1cncn1)(C1=NOC(COc2ccc(OCc3ccccc3)cc2)C1)c1ccc(Cl)cc1 (single isomer, unassigned) [Compound 69] | 100 | 94 | 38 | 25 | 27
CCC(C)(C)C(O)(Cn1cncn1)C1=NOC(Cc2ccc(C(F)(F)F)cc2)C1 (single isomer, unassigned) [Compound 20] | 100 | 99 | 65 | 98 | 0
CC(C)(C)CC(O)(Cn1cncn1)C1=NOC(Cc2ccc(Cl)cc2)C1 (single isomer, unassigned) [Compound 207] | 100 | 100 | 99 | 44 | 0
